Molecules are shown by their SMILES.

This data set can be described thus: Solubility of representative compounds (Table 1). The format is physicochemical. The conditions noted are these: solvents listed.
As for `CCCCCCCCCCC[C@@H]1CCN[C@H](C(=O)N[C@@H](CO)[C@@H](O)c2ccccc2)C1` [CYD-3-47-2, (2S,4R)—N-((1S,2S)-1,3-dihydroxy-1-phenylpropan-2-yl)-4-undecylpiperidine-2-carboxamide], the Solubility entry is on record as “EtOH, DMSO”.
As for `Cc1ccc(CC[C@H]2CCNC(C(=O)N[C@@H](CO)[C@@H](O)c3ccccc3)C2)cc1` (stereo in doubt) [CYD-6-9-1, (2S,4S)—N-((1S,2S)-1,3-dihydroxy-1-phenylpropan-2-yl)-4-(4-methylphenethyl)piperidine-2-carboxamide], the Solubility result is “EtOH, DMSO”.
For `O=C(N[C@@H](CO)[C@@H](O)c1ccccc1)c1ccccc1C1CCNCC1` [CYD-3-50, N-((1S,2S)-1,3-dihydroxy-1-phenylpropan-2-yl)-2-(piperidin-4-yl)benzamide], the Solubility result is given as “EtOH, DMSO, H2O”.
As for `CCCCCCCCCCC[C@@H]1CCN[C@H](C(=O)N[C@@H](CO)[C@@H](O)c2ccc(S(C)(=O)=O)cc2)C1` [CYD-5-80-2, (2S,4R)—N-((1S,2S)-1,3-dihydroxy-1-(4-(methylsulfonyl)phenyl)propan-2-yl)-4-undecylpiperidine-2-carboxamide], the Solubility result is recorded as “EtOH, DMSO”.
Turning to `CCCCCCCCCCC[C@H]1CCN[C@@H](C(=O)N[C@@H](CO)[C@@H](O)c2ccc(SC)cc2)C1` [CYD-5-77-1, (2R,4S)—N-((1S,2S)-1,3-dihydroxy-1-(4-(methylthio)phenyl)propan-2-yl)-4-undecylpiperidine-2-carboxamide], the Solubility result was “EtOH, DMSO”.
Regarding `O=C(N[C@@H](CO)[C@@H](O)c1ccccc1)[C@@H]1C[C@H](c2ccccc2)CCN1` [CYD-6-16-2, (2S,4R)—N-((1S,2S)-1,3-dihydroxy-1-phenylpropan-2-yl)-4-phenylpiperidine-2-carboxamide], the Solubility result is given as “EtOH, DMSO”.
As to `CS[C@H]1O[C@H]([C@H](NC(=O)C2CC(CCC3CCCCC3)CCN2)[C@@H](C)O)[C@H](O)[C@H](O)[C@H]1O` (stereo partly drawn) [CYD-3-62, 2,4-cis-4-(2-Cyclohexyl-ethyl)-piperidine-2-carboxylic acid [2-hydroxy-1-(3,4,5-trihydroxy-6-methylsulfanyl-tetrahydro-pyran-2-yl)-propyl]-amide], the Solubility entry was “EtOH, DMSO”.
In the case of `CCCCCCCCCCC[C@H]1CCN[C@@H](C(=O)N[C@H](CO)[C@H](O)c2ccccc2)C1` [CYD-5-68-2, (2R,4S)—N-((1R,2R)-1,3-dihydroxy-1-phenylpropan-2-yl)-4-undecylpiperidine-2-carboxamide] it was “EtOH, DMSO”; in that of `O=C(NC(CO)CO)c1ccccc1C1CCNCC1` [CYD-3-33, N-(1,3-Dihydroxypropan-2-yl)-2-(piperidin-4-yl)benzamide], “EtOH, DMSO H2O”.
`O=C(N[C@@H](CO)[C@@H](O)c1ccccc1)[C@@H]1C[C@H](C2CCCCC2)CCN1` [CYD-6-15-2, (2S,4R)-4-cyclohexyl-N-((1S,2S)-1,3-dihydroxy-1-phenylpropan-2-yl)piperidine-2-carboxamide]: the Solubility result is “EtOH, DMSO”.
In the case of `CCCCCCCCCCC[C@@H]1CCN[C@H](C(=O)N[C@@H](CO)[C@@H](O)c2ccc(SC)cc2)C1` [CYD-5-77-2, (2S,4R)—N-((1S,2S)-1,3-dihydroxy-1-(4-(methylthio)phenyl)propan-2-yl)-4-undecylpiperidine-2-carboxamide] it was “EtOH, DMSO”; in that of `O=C(N[C@@H](CO)[C@@H](O)c1ccccc1)C1C[C@@H](c2ccccc2)CCN1` (stereo in doubt) [CYD-6-16-1, (2S,4S)—N-((1S,2S)-1,3-dihydroxy-1-phenylpropan-2-yl)-4-phenylpiperidine-2-carboxamide], “EtOH, DMSO”; in that of `CC(C)(C)c1ccc(CC[C@H]2CCN[C@@H](C(=O)N[C@H](CO)[C@H](O)c3ccccc3)C2)cc1` [CYD-6-2-2, (2R,4S)-4-(4-(tert-butyl)phenethyl)-N-((1R,2R)-1,3-dihydroxy-1-phenylpropan-2-yl)piperidine-2-carboxamide], “EtOH, DMSO”.
`CCCCCCCCCCC[C@@H]1CCN[C@H](C(=O)N[C@H](CO)[C@H](O)c2ccccc2)C1` [CYD-5-68-1, (2S,4R)—N-((1R,2R)-1,3-dihydroxy-1-phenylpropan-2-yl)-4-undecylpiperidine-2-carboxamide]: the Solubility result is on record as “EtOH, DMSO”.
As for `O=C(N[C@H](CO)[C@H](O)c1ccccc1)[C@@H]1C[C@H](CCC2CCCCC2)CCN1` [CYD-6-1-1, (2S,4R)-4-(2-cyclohexylethyl)-N-((1R,2R)-1,3-dihydroxy-1-phenylpropan-2-yl)piperidine-2-carboxamide], the Solubility result is given as “EtOH, DMSO”.
With `CCCCCCCCCC#Cc1ccnc(C(=O)NC(C(C)Cl)C2OC(SC)C(O)C(O)C2O)c1` (stereo not shown) [CYD-3-21, 4-Undec-1-ynyl-pyridine-2-carboxylic acid [2-chloro-1-(3,4,5-trihydroxy-6-methylsulfanyl-tetrahydro-pyran-2-yl)-propyl]-amide], the Solubility entry is given as “EtOH, DMSO”.
For the compound `CC1CCC(CC[C@H]2CCNC(C(=O)N[C@@H](CO)[C@@H](O)c3ccccc3)C2)CC1` (stereo in doubt) [CYD-6-10-1, (2S,4S)—N-((1S,2S)-1,3-dihydroxy-1-phenylpropan-2-yl)-4-(2-(4-methylcyclohexyl)ethyl)piperidine-2-carboxamide], the Solubility entry is listed as “EtOH, DMSO”.
Consider `CCCCCCCCCCC[C@H]1CCN[C@@H](C(=O)N[C@@H](CO)[C@@H](O)c2ccccc2)C1` [CYD-3-47-1, (2R,4S)—N-((1S,2S)-1,3-dihydroxy-1-phenylpropan-2-yl)-4-undecylpiperidine-2-carboxamide], for which the Solubility entry is “EtOH, DMSO”.
As to `O=C(N[C@H](CO)[C@H](O)c1ccccc1)[C@H]1C[C@@H](CCc2ccccc2)CCN1` [CYD-5-100-2, (2R,4S)—N-((1R,2R)-1,3-dihydroxy-1-phenylpropan-2-yl)-4-phenethylpiperidine-2-carboxamide], the Solubility result is recorded as “EtOH, DMSO”.
With `CC1CCC(CC[C@@H]2CCN[C@H](C(=O)N[C@@H](CO)C(O)c3ccccc3)C2)CC1` (stereo in doubt) [CYD-6-10-2, (2S,4R)—N-((1R,2S)-1,3-dihydroxy-1-phenylpropan-2-yl)-4-(2-(4-methylcyclohexyl)ethyl)piperidine-2-carboxamide], the Solubility entry was “EtOH, DMSO”.
Consider `O=C(N[C@H](CO)[C@H](O)c1ccccc1)[C@H]1C[C@@H](CCC2CCCCC2)CCN1` [CYD-6-1-2, (2R,4S)-4-(2-cyclohexylethyl)-N-((1R,2R)-1,3-dihydroxy-1-phenylpropan-2-yl)piperidine-2-carboxamide], for which the Solubility result is recorded as “EtOH, DMSO”.
Consider `CS[C@H]1O[C@H]([C@H](NC(=O)C2CC(CCc3ccccc3)CCN2)[C@@H](C)O)[C@H](O)[C@H](O)[C@H]1O` (stereo partly drawn) [CYD-3-61, 2,4-cis-4-Phenethyl-piperidine-2-carboxylic acid [2-hydroxy-1-(3,4,5-trihydroxy-6-methylsulfanyl-tetrahydro-pyran-2-yl)-propyl]-amide], for which the Solubility result is given as “EtOH, DMSO”.
On to `O=C(N[C@@H](CO)[C@@H](O)c1ccccc1)C1C[C@@H](C2CCCCC2)CCN1` (stereo in doubt) [CYD-6-15-1, (2S,4S)-4-cyclohexyl-N-((1S,2S)-1,3-dihydroxy-1-phenylpropan-2-yl)piperidine-2-carboxamide], for which the Solubility entry is recorded as “EtOH, DMSO”.
Take `Cc1ccc(CC[C@@H]2CCN[C@H](C(=O)N[C@@H](CO)[C@@H](O)c3ccccc3)C2)cc1` [CYD-6-9-2, (2S,4R)—N-((1S,2S)-1,3-dihydroxy-1-phenylpropan-2-yl)-4-(4-methylphenethyl) piperidine-2-carboxamide]: the Solubility result is “EtOH, DMSO”.
In the case of `c1ccc(N2CCNCC2CN2CCCCC2)cc1` (stereo not shown) [JZ-1-34] it was “EtOH, DMSO”; in that of `O=C(N[C@H](CO)[C@H](O)c1ccccc1)[C@@H]1C[C@H](CCc2ccccc2)CCN1` [CYD-5-100-1, (2S,4R)—N-((1R,2R)-1,3-dihydroxy-1-phenylpropan-2-yl)-4-phenethylpiperidine-2-carboxamide], “EtOH, DMSO”.
Take `c1ccc(N2CCN(CC3CNCCN3c3ccccc3)CC2)cc1` (stereo not shown) [JZ-1-35]: the Solubility entry was “EtOH, DMSO”.
The result for `O=C(NCC(O)CO)c1ccccc1C1CCNCC1` (stereo not shown) [CYD-3-35, N-(2,3-Dihydroxypropyl)-2-(piperidin-4-yl)benzamide] reads “EtOH, DMSO, H2O”; that for `CCCCCCCCCCC[C@H]1CCN[C@@H](C(=O)N[C@@H](CO)[C@@H](O)c2ccc(S(C)(=O)=O)cc2)C1` [CYD-5-80-1, (2R,4S)—N-((1S,2S)-1,3-dihydroxy-1-(4-(methylsulfonyl)phenyl)propan-2-yl)-4-undecylpiperidine-2-carboxamide], “EtOH, DMSO”; that for `O=C(NCC(O)CO)C1CNCCN1c1ccccc1` (stereo not shown) [CYD-3-49, N-(2,3-Dihydroxypropyl)-1-phenylpiperazine-2-carboxamide], “EtOH, DMSO, H2O”.
Take `CC(C)(C)c1ccc(CC[C@@H]2CCN[C@H](C(=O)N[C@H](CO)[C@H](O)c3ccccc3)C2)cc1` [CYD-6-2-1, (2S,4R)-4-(4-(tert-butyl)phenethyl)-N-((1R,2R)-1,3-dihydroxy-1-phenylpropan-2-yl)piperidine-2-carboxamide]: the Solubility entry was “EtOH, DMSO”.

The values are drawn from patent publication US9533973B2, “Allosteric modulators of 5-hydroxytryptamine 2C receptor (5-HT2CR)” (THE BOARD OF REGENTS OF THE UNIVERSITY OF TEXAS SYSTEM, priority 2011, dated 2017).
